In patent publication US9512172B2, “Ethanol dependence of alpha1 antitrypsin C-terminal Lys truncation by basic carboxypeptidases” (Baxalta Incorporated, priority 2006, dated 2016):

Columns and labels:
[1] = molecular target: T1, CPN present in the paste (Homo sapiens, UniProt P15169); test: Effect of CP inhibitors on C-terminal lysine truncation in dissolved, ethanol-treated IV-1 paste (IEF); assay type: biochemical
T1 construct: Cohn IV-1 precipitate is usually derived after ethanol fractionation of plasma; from tissue; host or cells: Cohn IV-1 paste (ethanol precipitate of plasma)
T1 sequence (P15169 21-458): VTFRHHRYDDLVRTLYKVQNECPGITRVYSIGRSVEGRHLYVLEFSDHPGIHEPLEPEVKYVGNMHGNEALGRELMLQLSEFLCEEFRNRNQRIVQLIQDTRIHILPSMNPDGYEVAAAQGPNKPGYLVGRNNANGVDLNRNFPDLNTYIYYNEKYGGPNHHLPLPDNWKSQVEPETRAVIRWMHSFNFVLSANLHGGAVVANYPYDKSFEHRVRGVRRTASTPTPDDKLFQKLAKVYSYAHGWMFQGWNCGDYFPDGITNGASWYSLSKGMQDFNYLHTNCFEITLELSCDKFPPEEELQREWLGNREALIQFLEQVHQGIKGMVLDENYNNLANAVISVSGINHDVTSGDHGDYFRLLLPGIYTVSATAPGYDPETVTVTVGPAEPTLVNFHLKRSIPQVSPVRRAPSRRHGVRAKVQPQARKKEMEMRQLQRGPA
T1 sequence (P22792 22-545 partner): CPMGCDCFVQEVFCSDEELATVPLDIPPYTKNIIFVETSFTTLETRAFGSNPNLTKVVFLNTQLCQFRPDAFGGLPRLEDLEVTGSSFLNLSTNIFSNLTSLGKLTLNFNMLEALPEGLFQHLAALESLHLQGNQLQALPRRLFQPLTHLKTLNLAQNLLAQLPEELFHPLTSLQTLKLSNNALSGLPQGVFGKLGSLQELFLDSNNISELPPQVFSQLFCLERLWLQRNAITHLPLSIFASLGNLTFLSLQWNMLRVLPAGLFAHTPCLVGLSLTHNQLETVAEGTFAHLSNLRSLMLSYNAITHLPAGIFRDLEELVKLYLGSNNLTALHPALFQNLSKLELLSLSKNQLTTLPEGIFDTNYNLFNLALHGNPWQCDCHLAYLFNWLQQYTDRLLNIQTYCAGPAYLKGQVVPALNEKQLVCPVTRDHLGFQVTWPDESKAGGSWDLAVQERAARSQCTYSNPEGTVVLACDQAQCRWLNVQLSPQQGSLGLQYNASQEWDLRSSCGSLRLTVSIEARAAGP
Protocol: Cohn IV-1 paste was dissolved in 2.6 volumes of 10 mM Tris-buffer at pH 8.8 and incubated for 30 min at 22° C. The suspension was made 40% in ethanol (by addition of 2.4 volumes of ethanol), stirred for a further 60 min, diluted with the same Tris-buffer to 10% ethanol and extracted for a further 6 h.
The following inhibitors were added in parallel during extraction and dilution with Tris-buffer: 100 mM 6-aminocaproic acid, 10 μM or 1 nM 2-mercaptomethyl-3-guanidinoethylthiopropanoic acid (a more specific inhibitor of CPN). The samples were characterized by high resolution isoelectric focusing.
For high resolution isoelectric focusing a new hybrid IEF method using IPG-Immobiline gels (GE Healthcare Bio-Sciences, pI 4.2-4.9, Uppsala, Sweden) was developed which is similar to that described by Weidinger^54. Samples were diluted with water to 0.5 mg A1PI/mL and 5 mM DTE was added. Samples (20 μl) were applied close to the cathode on the pre-focused gel and focused for 150 min (5000 Vh). For paste extracts focusing time was extended to 420 min. Gels were stained with Coomassie Brilliant Blue G-250 (BioRad, Hercules, USA) as described by Neuhoff^55. Blotting and immunostaining were done with a rabbit anti-A1PI antibody (Rabbit Anti-Human Alpha-1-Antitrypsin, #A0012, DakoCytomation, Glostrup, Denmark).

[2] = molecular target: T2, CPU (Homo sapiens, UniProt Q96IY4); settings: cited from earlier work
T2 sequence (Q96IY4 115-423): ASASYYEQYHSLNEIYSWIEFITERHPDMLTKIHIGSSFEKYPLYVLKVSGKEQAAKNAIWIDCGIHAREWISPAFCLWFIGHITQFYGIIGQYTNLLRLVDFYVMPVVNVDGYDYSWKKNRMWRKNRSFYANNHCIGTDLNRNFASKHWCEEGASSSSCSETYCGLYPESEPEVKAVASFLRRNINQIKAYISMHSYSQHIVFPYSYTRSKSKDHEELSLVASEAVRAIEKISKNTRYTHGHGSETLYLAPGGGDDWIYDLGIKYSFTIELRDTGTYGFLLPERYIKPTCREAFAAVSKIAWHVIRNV

[3] = molecular target: T3, CPN (Homo sapiens, UniProt P15169); settings: cited from earlier work
T3 sequence (P15169 21-458): T1 sequence (P15169 21-458)
T3 sequence (P22792 22-545 partner): T1 sequence (P22792 22-545 partner)

[4] = molecular target: T3, CPN; settings: at 10% ethanol
Protocol: The activity of the basic carboxypeptidases was measured with a HPLC-assisted assay as described^52. This assay is based on the cleavage of the synthetic substrate hippuryl-L-arginine. Released hippuric acid was determined with reverse phase high performance liquid chromatography (RP-HPLC). Briefly, to 10 μl of sample, 40 μl of 30 mM hippuryl-L-arginine (Bachem Feinchemikalien, Buchs, Switzerland) in 50 mM HEPES, pH 8.0, was added and incubated for 30 minutes at 37° C. in a water bath. Hippuryl-L-arginine cleavage was stopped by adding 50 μl of 1 M HCl. 10 μl of o-methyl hippuric acid (synthesized from methylbenzoyl chloride) serving as an internal standard was added afterwards. The hippuric acid (Bz-Gly, Fluka, Buchs, Switzerland) and o-methyl hippuric acid were extracted with ethyl acetate (300 μl). This layer was evaporated to dryness, redissolved in the mobile phase (10 mM KH2PO4, 10% acetonitrile, pH 3.5) and injected unto the column (C-18 Chromolith, performance 100-4.6 mm column (Merck, Darmstadt, Germany). The separation was done in isocratic mode and monitored at 228 nm. One unit of carboxypeptidase activity is defined as the amount of enzyme required to release 1 μmol of hippuric acid per min at 37° C. under the assay conditions described.

SMILES	Inhibition of Lys truncation induced by the procedure 40=>10% EtOH ([1]; dissolved IV-1 paste, pH 8.8, 6 h)	Inhibition of lysine removal from A1PI ([1]; inhibitor at 10 μmol/l)	Ki [2] [nM]	Ki [3] [nM]	Rate of substrate (Bz-Gly-Arg) cleavage by CPN [4]
N=C(N)NCCSCC(CS)C(=O)O (racemic) [DL-2-mercaptomethyl-3-guanidinoethylthio-propanoic acid]	dose-dependently	completely inhibited	200	8.7	–
CCO [ethanol]	–	–	–	–	almost doubled
